Assay results taken from US7699801B2, “Advanced genetic vaccines” (priority 1995, dated 2010).

System: human carcino embryonic antigen (CEA)
Assay: CEA-specific IgG1/IgG2a serum antibody ELISA after particle-mediated DNA immunization
Type: in vivo, mouse
Conditions: Balb/c mice, sera four weeks after treatment
Description: The adjuvant and the nucleic acid molecule containing the sequence encoding the antigen of interest were co-administered via particle-mediated delivery using a gene gun. The particular antigen used for this example was the human carcino embryonic antigen (“CEA”), a human tumor antigen widely used in experiments investigating cancer therapeutic treatments. […] Without an adjuvant, Th2 type CEA-specific antibodies (IgG1) are detected at levels more than twenty-fold higher than the levels of Th1 type CEA-specific antibodies (IgG2a) in Balb/c mice.
For this protocol, a plasmid construct containing a coding region for the CEA antigen under the control of the cytomegalovirus immediate early promoter (CMV) with the CMV intron A between the promoter and the coding region was used. To form the composition, 64 μg of the plasmid, which was designated WRG7083, in 120 μL of water was added to 32 milligrams of 0.9 micron gold beads in an Eppendorf tube, i.e., 2 μg DNA/mg gold. Next, 13.5 μL of ammonium acetate solution and 135 μL of isopropanol were added, and the tube was vortexed briefly. The mixture was incubated for 15 minutes at −20° C. to precipitate the DNA onto the gold. The DNA coated beads were pelleted by a ten second spin and the supernatants were removed. The gold/DNA pellets were washed four times by vortexing in 1 mL ethanol, microfuging ten seconds, and removing supernatants. […]

human carcino embryonic antigen (CEA), sequence (P06731 35-676): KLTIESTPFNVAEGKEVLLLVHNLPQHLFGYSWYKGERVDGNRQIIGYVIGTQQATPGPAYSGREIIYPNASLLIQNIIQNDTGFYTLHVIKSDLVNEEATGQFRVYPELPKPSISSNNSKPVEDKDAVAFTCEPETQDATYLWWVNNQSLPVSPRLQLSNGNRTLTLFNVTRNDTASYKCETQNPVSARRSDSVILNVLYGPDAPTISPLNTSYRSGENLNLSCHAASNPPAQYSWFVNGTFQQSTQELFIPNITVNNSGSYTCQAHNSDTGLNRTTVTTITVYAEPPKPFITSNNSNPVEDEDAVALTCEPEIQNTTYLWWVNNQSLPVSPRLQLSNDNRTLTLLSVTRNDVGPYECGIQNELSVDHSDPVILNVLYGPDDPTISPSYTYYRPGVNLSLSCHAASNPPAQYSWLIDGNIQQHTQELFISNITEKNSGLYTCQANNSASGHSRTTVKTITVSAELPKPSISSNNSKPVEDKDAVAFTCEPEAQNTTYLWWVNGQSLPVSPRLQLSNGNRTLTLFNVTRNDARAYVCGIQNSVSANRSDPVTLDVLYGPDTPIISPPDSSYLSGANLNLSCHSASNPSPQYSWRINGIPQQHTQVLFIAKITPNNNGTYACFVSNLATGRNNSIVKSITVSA

## monophosphoryl lipid A [MPL]
0.2 mg/mL MPL on WRG7083 DNA-coated gold particles, gene gun delivery
  ratio of IgG1 to IgG2a CEA-specific antibodies: 4.5
MPL stock swabbed on skin prior to gene gun delivery of WRG7083 DNA
  ratio of IgG1 to IgG2a CEA-specific antibodies: about 4.0
